Reference: patent US12018059B2, “Human amylin analog polypeptides and methods of use” (Intarcia Therapeutics, Inc., priority 2018, dated 2024)
Starred links: 1 amine or outer side, 2 acyl side, 3 side chain; linkers in the order of their positions; H or OH if unused. Positions of bridges follow the written chain, without caps; N, C: chain ends. Non-standard residues stand in square brackets, D forms with d. Residues, ends and D or L forms follow the SMILES beside them. Groups on a side chain read outwards from the residue. *: point of attachment. γGlu = O=C(O)[C@H](CCC(=O)[*:2])N[*:1]; HOOC(CH2)6CO = O=C(O)CCCCCCC(=O)*; Palmitoyl = CCCCCCCCCCCCCCCC(=O)*; AEEA = NCCOCCOCC(=O)O

test: in vivo; design: species or system Sprague-Dawley rats; settings: rat, iv, 0.033 mg/kg
Description: Peptides were dissolved in sterile saline and administered as a 1-hour intravenous infusion to non-fasted male Sprague-Dawley rats (n=3 per group) via femoral vein cannula at a final dose of 0.033 mg/kg. […] Blood samples (approximately 250 μL) were collected for pharmacokinetic analysis via a jugular vein cannula at 0.25, 0.5, 0.75, 1, 1.17, 1.33, 1.5, 2, 4, 6, 8, 24, 30 and 48 hr post-start of infusion into microtainer tubes containing K2EDTA as anticoagulant and 25 μL of a protease inhibitor cocktail. Plasma was prepared by centrifugation and stored at −80° C. until analysis. The results of this analysis are shown in Table 9 and few exemplars in FIGS. 3a-3b. […]
A 60 μL aliquot of each plasma sample was placed into to a 96-well plate. To each well was added 6 μL of 0.5% Tween-20. Plates were then vortexed mixed for 10 minutes at 1200 rpm before 180 μL of 0.1% TFA in 2:1 ethanol:acetonitrile containing an appropriate internal standard was added to each well. Plates were vortex mixed for 5 min at 1300 rpm, and then centrifuged for 10 min at 2844×g. Supernatants (180 μL) were placed into a clean 96-well plate and evaporated under a nitrogen stream at 45° C. Residues were reconstituted in 80 μL of 20% acetonitrile (aq) containing 0.1% formic acid.
A […] aliquot of each plasma sample was diluted with […] of 10 mM ammonium acetate (pH 6.8) containing an appropriate internal standard and loaded onto an Oasis WCX microElution plate (Waters Corporation, Milford, MA) that had been pre-conditioned with […] of methanol and […] of deionized water. Samples were washed with […] of 5% ammonium hydroxide (aq) followed by […] of 20% acetonitrile in water. The analyte was eluted with […] of 5% formic acid in 75:25 acetonitrile:water. The eluent was dried under a nitrogen stream. Residues were reconstituted in 80 μL of 20% acetonitrile (aq) containing 0.1% formic acid.
All calibration standards were prepared in control rat plasma containing K2EDTA and protease inhibitor cocktail.
Samples and standards were analyzed by TurbolonSpray™ UPLC-MS/MS using a system consisting of a CTC HTS PAL auto-injector (Leap, Carrboro, NC), an Agilent Infinity 1290 system with column oven (Palo Alto, CA), a Valco switching valve (Houston, TX), and either an AB Sciex API 5600 TripleTOF™ or Sciex API 4000QTrap mass spectrometer (Framingham, MA). Samples were injected onto a 2.1×50 mm reverse phase C18 analytical column, typically a Waters CORTECS UPLC C18+, 1.6 μm (Waters Corporation, Milford, MA) or similar. […] Initial conditions consisted of 90% A and 10% B. The organic component was increased to 95% B over a period of 3-4 minutes, depending on the peptide. Typical flow rates were 600 μL/min. The column temperature was held constant at 40 or 50° C. Peptides were quantified by monitoring one or more product ions produced from a multiply charged parent ion.

Structure (SMILES) | Vd | clearance | half-life
CCCCCCCCCCCCCCCC(=O)N[C@@H](CCC(=O)NCCCC[C@H](NC(=O)[C@H](CC(C)C)NC(=O)[C@H](CCC(=O)O)NC(=O)[C@H](CC(N)=O)NC(=O)[C@H](C)NC(=O)[C@H](CC(C)C)NC(=O)[C@H](CCCNC(=N)N)NC(=O)[C@H](CCC(N)=O)NC(=O)[C@@H](NC(=O)[C@H](C)NC(=O)[C@@H]1CSSC[C@H](NC(=O)[C@@H](N)CO)C(=O)N[C@@H](CC(N)=O)C(=O)N[C@@H]([C@@H](C)O)C(=O)N[C@@H](CO)C(=O)N[C@@H]([C@@H](C)O)C(=O)N1)[C@@H](C)O)C(=O)N[C@@H](CCCCN)C(=O)N[C@@H](CO)C(=O)N[C@@H](CO)C(=O)N[C@@H](CC(N)=O)C(=O)N[C@@H](CC(N)=O)C(=O)N[C@@H](Cc1ccccc1)C(=O)NCC(=O)N1CCC[C@H]1C(=O)N[C@H](C(=O)N[C@@H](CC(C)C)C(=O)N1CCC[C@H]1C(=O)N1CCC[C@H]1C(=O)N[C@H](C(=O)N[C@@H](CCCCN)C(=O)N[C@H](C(=O)NCC(=O)N[C@@H](CO)C(=O)N[C@@H](CCC(=O)O)C(=O)N[C@H](C(=O)N[C@@H](Cc1ccc(O)cc1)C(N)=O)[C@@H](C)O)C(C)C)[C@@H](C)O)[C@@H](C)CC)C(=O)O [Compound A10] (H-SCNTSTCATQRLANELK([γGlu-Palmitoyl])KSSNNFGPILPPTKVGSETY-NH2; disulfide 2-7) | 0.245 L/kg | 3.72 mL/min/kg | 0.965 h
CCCCCCCCCCCCCCCC(=O)N[C@@H](CCC(=O)NCCOCCOCC(=O)NCCOCCOCC(=O)NCCCC[C@@H](NC(=O)[C@H](CCC(=O)O)NC(=O)[C@H](CC(N)=O)NC(=O)[C@H](C)NC(=O)[C@H](CC(C)C)NC(=O)[C@H](CCCNC(=N)N)NC(=O)[C@H](CCC(N)=O)NC(=O)[C@@H](NC(=O)[C@H](C)NC(=O)[C@@H]1CSSC[C@H](NC(=O)[C@@H](N)CO)C(=O)N[C@@H](CC(N)=O)C(=O)N[C@@H]([C@@H](C)O)C(=O)N[C@@H](CO)C(=O)N[C@@H]([C@@H](C)O)C(=O)N1)[C@@H](C)O)C(=O)N[C@@H](Cc1c[nH]cn1)C(=O)N[C@@H](CCCCN)C(=O)N[C@@H](CO)C(=O)N[C@@H](CO)C(=O)N[C@@H](CC(N)=O)C(=O)N[C@@H](CC(N)=O)C(=O)N[C@@H](Cc1ccccc1)C(=O)NCC(=O)N1CCC[C@H]1C(=O)N[C@H](C(=O)N[C@@H](CC(C)C)C(=O)N1CCC[C@H]1C(=O)N1CCC[C@H]1C(=O)N[C@H](C(=O)N[C@@H](CCCCN)C(=O)N[C@H](C(=O)NCC(=O)N[C@@H](CO)C(=O)N[C@@H](CCC(=O)O)C(=O)N[C@H](C(=O)N[C@@H](Cc1ccc(O)cc1)C(N)=O)[C@@H](C)O)C(C)C)[C@@H](C)O)[C@@H](C)CC)C(=O)O [Compound A12] (H-SCNTSTCATQRLANE[dK]([AEEA-AEEA-γGlu-Palmitoyl])HKSSNNFGPILPPTKVGSETY-NH2; disulfide 2-7; N-terminus assumed) | 0.252 L/kg | 1.55 mL/min/kg | 2.47 h
CCCCCCCCCCCCCCCC(=O)N[C@@H](CCC(=O)N[C@@H](CCC(=O)N[C@@H](CCC(=O)N[C@@H](CCC(=O)N[C@@H](CCC(=O)NCCCC[C@H](NC(=O)[C@H](CCC(=O)O)NC(=O)[C@H](CC(N)=O)NC(=O)[C@H](C)NC(=O)[C@H](CC(C)C)NC(=O)[C@H](CCCNC(=N)N)NC(=O)[C@H](CCC(N)=O)NC(=O)[C@@H](NC(=O)[C@H](C)NC(=O)[C@@H]1CSSC[C@H](NC(=O)[C@@H](N)CO)C(=O)N[C@@H](CC(N)=O)C(=O)N[C@@H]([C@@H](C)O)C(=O)N[C@@H](CO)C(=O)N[C@@H]([C@@H](C)O)C(=O)N1)[C@@H](C)O)C(=O)N[C@@H](Cc1c[nH]cn1)C(=O)N[C@@H](CCCCN)C(=O)N[C@@H](CO)C(=O)N[C@@H](CO)C(=O)N[C@@H](CC(N)=O)C(=O)N[C@@H](CC(N)=O)C(=O)N[C@@H](Cc1ccccc1)C(=O)NCC(=O)N1CCC[C@H]1C(=O)N[C@H](C(=O)N[C@@H](CC(C)C)C(=O)N1CCC[C@H]1C(=O)N1CCC[C@H]1C(=O)N[C@H](C(=O)N[C@@H](CCCCN)C(=O)N[C@H](C(=O)NCC(=O)N[C@@H](CO)C(=O)N[C@@H](CCC(=O)O)C(=O)N[C@H](C(=O)N[C@@H](Cc1ccc(O)cc1)C(N)=O)[C@@H](C)O)C(C)C)[C@@H](C)O)[C@@H](C)CC)C(=O)O)C(=O)O)C(=O)O)C(=O)O)C(=O)O [Compound A14] (H-SCNTSTCATQRLANEK([γGlu-γGlu-γGlu-γGlu-γGlu-Palmitoyl])HKSSNNFGPILPPTKVGSETY-NH2; disulfide 2-7) | 0.163 L/kg | 0.183 mL/min/kg | 11.3 h
CC[C@H](C)[C@H](NC(=O)[C@@H]1CCCN1C(=O)CNC(=O)[C@H](Cc1ccccc1)NC(=O)[C@H](CC(N)=O)NC(=O)[C@H](CC(N)=O)NC(=O)[C@H](CO)NC(=O)[C@H](CO)NC(=O)[C@H](CCCCN)NC(=O)[C@H](Cc1c[nH]cn1)NC(=O)[C@H](CC(C)C)NC(=O)[C@H](CCCCNC(=O)CCCCCCC(=O)O)NC(=O)[C@H](CC(N)=O)NC(=O)[C@H](C)NC(=O)[C@H](CC(C)C)NC(=O)[C@H](CCCNC(=N)N)NC(=O)[C@H](CCC(N)=O)NC(=O)[C@@H](NC(=O)[C@H](C)NC(=O)[C@@H]1CSSC[C@H](NC(=O)[C@@H](N)CO)C(=O)N[C@@H](CC(N)=O)C(=O)N[C@@H]([C@@H](C)O)C(=O)N[C@@H](CO)C(=O)N[C@@H]([C@@H](C)O)C(=O)N1)[C@@H](C)O)C(=O)N[C@@H](CC(C)C)C(=O)N1CCC[C@H]1C(=O)N1CCC[C@H]1C(=O)N[C@H](C(=O)N[C@@H](CCCCN)C(=O)N[C@H](C(=O)NCC(=O)N[C@@H](CO)C(=O)N[C@@H](CCC(=O)O)C(=O)N[C@H](C(=O)N[C@@H](Cc1ccc(O)cc1)C(N)=O)[C@@H](C)O)C(C)C)[C@@H](C)O [Compound A18] (H-SCNTSTCATQRLANK(HOOC(CH2)6CO)LHKSSNNFGPILPPTKVGSETY-NH2; disulfide 2-7) | 0.805 L/kg | 19.4 mL/min/kg | 0.508 h
CCCCCCCCCCCCCCCC(=O)N[C@@H](CCC(=O)N[C@@H](CCC(=O)N[C@@H](CCC(=O)NCCOCCOCC(=O)NCCOCCOCC(=O)N[C@@H](CCC(=O)NCCCC[C@H](NC(=O)[C@H](CCC(=O)O)NC(=O)[C@H](CC(N)=O)NC(=O)[C@H](C)NC(=O)[C@H](CC(C)C)NC(=O)[C@H](CCCNC(=N)N)NC(=O)[C@H](CCC(N)=O)NC(=O)[C@@H](NC(=O)[C@H](C)NC(=O)[C@@H]1CSSC[C@H](NC(=O)[C@@H](N)CO)C(=O)N[C@@H](CC(N)=O)C(=O)N[C@@H]([C@@H](C)O)C(=O)N[C@@H](CO)C(=O)N[C@@H]([C@@H](C)O)C(=O)N1)[C@@H](C)O)C(=O)N[C@@H](Cc1c[nH]cn1)C(=O)N[C@@H](CCCCN)C(=O)N[C@@H](CO)C(=O)N[C@@H](CO)C(=O)N[C@@H](CC(N)=O)C(=O)N[C@@H](CC(N)=O)C(=O)N[C@@H](Cc1ccccc1)C(=O)NCC(=O)N1CCC[C@H]1C(=O)N[C@H](C(=O)N[C@@H](CC(C)C)C(=O)N1CCC[C@H]1C(=O)N1CCC[C@H]1C(=O)N[C@H](C(=O)N[C@@H](CCCCN)C(=O)N[C@H](C(=O)NCC(=O)N[C@@H](CO)C(=O)N[C@@H](CCC(=O)O)C(=O)N[C@H](C(=O)N[C@@H](Cc1ccc(O)cc1)C(N)=O)[C@@H](C)O)C(C)C)[C@@H](C)O)[C@@H](C)CC)C(=O)O)C(=O)O)C(=O)O)C(=O)O [Compound A19] (H-SCNTSTCATQRLANEK([γGlu-AEEA-AEEA-γGlu-γGlu-γGlu-Palmitoyl])HKSSNNFGPILPPTKVGSETY-NH2; disulfide 2-7; N-terminus assumed) | 0.136 L/kg | 0.15 mL/min/kg | 11.5 h
